Experimental data reported in publication PMC12022751, “In vitro and in silico analysis of synthesized N-benzyl indole-derived hydrazones as potential anti-triple negative breast cancer agents” (RSC Advances, 2025).

Tests used:
Type in all cases: cell-based, human
[1] = MTT cytotoxicity assay on normal MCF-10A cells; settings: human, MCF-10A normal breast epithelial cells, 48 h incubation, test concentration for viability not stated (6.5-50 μM tested), read-out: Viability (%) Normal cell line (MCF-10A)
Method: (§1) All synthesized compounds (5a–5v) were tested using MTT assay at various concentrations (6.5 μM, 12.5 μM, 25 μM, and 50 μM) on the human breast cancer cell line MDA-MB-231. The cytotoxicity of the synthesized analogues was also assessed using human normal breast epithelial cell lines MCF-10A. Table 1 denotes IC50 values, percent inhibition, and cell viability for compounds 5a–v on MDA-MB-231. The dose–response analysis and calculations of IC50 values were performed using IBM SPSS statistics 26. The MTT assay on MDA-MB-231 confirmed the anticancer potential of all compounds. […] We then followed the same protocol as the cancer cells for the non-tumorigenic MCF-10A cells but with different concentrations (6.5 μM, 12.5 μM, 25 μM, and 50 μM). This was done to determine whether the toxic effects of the chemicals were selective for cancer cells compared to non-cancerous cells.
(§2) The in vitro cytotoxicity of the synthetic derivatives was evaluated using an MTT assay against a breast cancer cell line (MDA-MB-231).[33] The normal human breast cell line (MCF-10A) was maintained as a control in this study.[34,35] The cells were grown in DMEM with 10% FBS and 1% antibiotics (100 U mL^−1 penicillin). They were plated in a 96-well plate at a density of 1.0 × 10^4 cells per well and incubated for 24 hours at 37 °C in a 5% CO2 atmosphere. After discarding the medium, both cell lines were treated with various concentrations (6.5 μM, 12.5 μM, 25 μM, and 50 μM) of synthetic triazole derivatives.[36] After 48 h of incubation, [37] 20 μL of MTT solution (5 mg mL^−1) was added to each well and incubated for an additional 4 hours. After incubation, the medium was removed, and the formazan precipitate was dissolved in DMSO. The absorbance of the mixture was then measured at 570 nm using a microplate reader. All experiments were performed in triplicate, and the cytotoxicity was expressed as a percentage of cell viability compared to untreated control cells as per an earlier reported protocol by Sakhi et al.:[36]1 [drawing 1]

[2] = tested on: MCF-10A normal breast epithelial cell line; assay: MTT cytotoxicity assay on normal MCF-10A cells; settings: Homo sapiens, MCF-10A, 48 h incubation
Method: as §1, §2

[3] = tested on: MDA-MB-231 breast cancer cell line; assay: MTT cytotoxicity assay on MDA-MB-231; settings: 48 h incubation; for Viability (%) Breast cancer cell line (MDA-MB-231): test concentration for viability not stated (6.5-50 μM tested); for IC50: triplicate
Method: as §1, §2

SMILES | viability at 48 h [1] [%] | IC50 [2] [µM] | Viability (%) Breast cancer cell line (MDA-MB-231) [3] [%] | IC50 ([3]; Homo sapiens, MDA-MB-231, 48 h) [µM] | IC50 [3] [µM]
O=C(NN=Cc1cn(Cc2ccccc2)c2ccccc12)c1ccccc1Cl [Compound 5o, (E)-N′-((l-benzyl-1H-indo1-3-yl)methylenel-2-chlorobenzohydrazide] | 82.3 | > 50 | 20.37 | 19.6 ± 0.5 | 
O=C(NN=Cc1cn(Cc2ccccc2)c2ccccc12)c1cccc2ccccc12 [Compound 5u, (E)-N′-[(1-benzyl-1H-indo1-3-yl)methylene]-1-naphthohydrazide] | 83.6 | > 50 | 30.59 | 26.6 ± 0.1 | 
COc1ccc(C(=O)NN=Cc2cn(Cc3ccccc3)c3ccccc23)cc1 [Compound 5a, (E)-N′-[(1-benzyl-1H-indol-3-ylmethylene]-4-methoxybenzohydrazide] | 82.7 | > 50 | 32.45 | 25.6 ± 0.4 | 
Cc1ccccc1C(=O)NN=Cc1cn(Cc2ccccc2)c2ccccc12 [Compound 5v, (E)-N′-[(1-benzyl-1H-indo1-3-yl)methylene]-2-methylbenzohydrazide] | 81 | > 50 | 28.11 | 29.4 ± 0.8 | 23.1 ± 0.6
O=C(NN=Cc1cn(Cc2ccccc2)c2ccccc12)c1cc2ccccc2cc1O [Compound 5g, (E)-N′-[(1-benzyl-1H-indo1-3-yl)methylene]-3-hydroxy-2-naphthohydrazide] | 81.8 | > 50 | 29.76 | 24.4 ± 0.6 | 
O=C(NN=Cc1cn(Cc2ccccc2)c2ccccc12)c1ccccc1 [Compound 5b, (E)-N′-[(1-benzyl-1H-indo1-3-yl)methylene]benzohydrazide] | 77.1 | > 50 | 18.56 | 17.2 ± 0.4 | 
O=C(NN=Cc1cn(Cc2ccccc2)c2ccccc12)c1cccc(Cl)c1 [Compound 5j, (E)-N′-[(1-benzyl-1H-indo1-3-yl)methylene]-3-chlorobenzohydrazide] | 80.8 | > 50 | 21.87 | 22.6 ± 0.1 | 
O=C(NN=Cc1cn(Cc2ccccc2)c2ccccc12)c1cccnc1 [Compound 5e, (E)-N′-[(1-benzyl-1H-indo1-3-yl)methylene]nicotinohydrazide] | 85.7 | > 50 | 31.47 | 28.2 ± 0.5 | 
O=C(Cc1cc(F)ccc1F)NN=Cc1cn(Cc2ccccc2)c2ccccc12 [Compound 5s, (E)-N′-[(1-benzyl-1H-indo1-3-yl)methylene]-2-(2,5-difluorophenyl)acetohydrazide] | 86.3 | > 50 | 38.14 | 29.4 ± 0.8 | 
O=C(NN=Cc1cn(Cc2ccccc2)c2ccccc12)c1ccccc1Br [Compound 5m, (E)-N′-[(1-benzyl-1H-indo1-3-yl)methylene]-2-bromobenzohydrazide] | 87.2 | > 50 | 29.14 | 26.4 ± 0.2 | 
O=C(Cc1ccccc1)NN=Cc1cn(Cc2ccccc2)c2ccccc12 [Compound 5n, (E)-N′-(l-benzyl-1H-indo1-3-yl)methylenel-2-phenylacetohydrazide] | 79.8 | > 50 | 44.16 | 43.4 ± 0.2 | 
O=C(Cc1ccc(F)cc1F)NN=Cc1cn(Cc2ccccc2)c2ccccc12 [Compound 5q, (E)-N′-[(1-benzyl-1H-indo1-3-yl)methylene]-2-(2,4-difluorophenypacetohydrazide] | 79.5 | > 50 | 41.09 | 37.6 ± 0.2 | 
O=C(NN=Cc1cn(Cc2ccccc2)c2ccccc12)c1ccco1 [Compound 5i, (E)-N′-[(1-benzyl-1H-indo1-3-yl)methylene]furan-2-carbohydrazide] | 84.6 | > 50 | 23.53 | 17.2 ± 0.4 | 19.2 ± 0.4
O=C(NN=Cc1cn(Cc2ccccc2)c2ccccc12)c1ccc(Br)cc1 [Compound 5f, (E)-N′-[(1-benzyl-1H-indo1-3-yl)methylene]-4-bromobenzohydrazide] | 82.4 | > 50 | 25.05 | 21.8 ± 0.2 | 
O=C(Cc1ccc(C(F)(F)F)cc1)NN=Cc1cn(Cc2ccccc2)c2ccccc12 [Compound 5d, (E)-N′-[(1-benzyl-1H-indo1-3-yl)methylene]-2-(4(trifluoromethyl)phenyl)acetohydrazide] | 80.2 | > 50 | 27.94 | 22.6 ± 0.8 | 
O=C(Cc1cc(F)cc(F)c1)NN=Cc1cn(Cc2ccccc2)c2ccccc12 [Compound 5r, (E)-N′-[(1-benzyl-1H-indo1-3-yl)methylene]-2-(3,5-difluorophenyl)acetohydrazide] | 84.1 | > 50 | 36.18 | 31.6 ± 0.1 | 
Cc1ccc(C(=O)NN=Cc2cn(Cc3ccccc3)c3ccccc23)cc1F [Compound 5c, (E)-N′-((l-benzyl-1H-indo1-3-yl)methylenel-3-fluoro-4-methylbenzohydrazide] | 85.7 | > 50 | 37.40 | 27.1 ± 0.4 | 
O=C(NN=Cc1cn(Cc2ccccc2)c2ccccc12)c1ccncc1 [Compound 5k, (E)-N′-[(1-benzyl-1H-indo1-3-yl)methylene]isonicotinohydrazide] | 80.1 | > 50 | 23.44 | 21.4 ± 0.2 | 
O=C(Cc1ccccc1C(F)(F)F)NN=Cc1cn(Cc2ccccc2)c2ccccc12 [Compound 5p, (E)-N′-[(1-benzyl-1H-indo1-3-yl)methylene]-2-(2-(trifluoromethyl)phenypacetohydrazide] | 83.1 | > 50 | 25.67 | 24.6 ± 0.1 | 
O=C(NN=Cc1cn(Cc2ccccc2)c2ccccc12)c1ccc(C(F)(F)F)cc1 [Compound 5h, (E)-N′-[(1-benzyl-1H-indo1-3-yl)methylene]-4-(trifluoromethyl)benzohydrazide] | 78.1 | > 50 | 33.07 | 30.8 ± 0.4 | 
